Reference: patent EP0386920A2, “2-Hydroxy-3-thienyloxypropylamino derivatives” (IMPERIAL CHEMICAL INDUSTRIES PLC, priority 1989, dated 1990)

Experiments:
[1] = test system: BAT mitochondria; assay: test (a): GDP binding in brown adipose tissue (BAT) mitochondria of cold-adapted rats as a measure of thermogenic activation; format: in vivo; details: Rattus norvegicus, sc, 1 h, sub-cutaneous (s.c), BAT removed one hour after dosing, relative to isoprenaline 1 mg/kg, read-out: ED₅₀ (dose necessary to produce 50% of the isoprenaline effect on GDP binding)
[2] = test system: Rats; assay: test (c): metabolic rate (oxygen consumption) in cold-adapted rats; format: in vivo; details: at 1mgkg⁻¹ p.o., closed-circuit oxygen consumption apparatus
[3] = test system: Rats; assay: test (b): heart rate in rats adapted to a thermoneutral environment (D500 dose and selectivity index)

COC(=O)COc1ccc(CCNCC(O)COc2ccsc2)cc1 (racemic) [Example 1, Methyl 4-[2-(2-hydroxy-3-(3-thienyloxy)propylamino)ethyl]phenoxyacetate]
ED50 [1]: 0.2 mg/kg
increase in metabolic rate [2]: 5.2 ml O₂ min⁻¹Kg ^0.75
SI (selectivity index, ratio of D₅₀₀ to ED₅₀ in test (a)) ([3]; s.c): > 100

CC(C)NCC(O)c1ccc(O)c(O)c1 (stereo not shown) [isoprenaline, reference compound]
SI (selectivity index, ratio of D₅₀₀ to ED₅₀ in test (a)) ([3]; route not stated): 0.06
